Laboratory results published in ChEMBL document CHEMBL5390204, “Persephacin Is a Broad-Spectrum Antifungal Aureobasidin Metabolite That Overcomes Intrinsic Resistance in Aspergillus fumigatus” (J Nat Prod, 2023).
≈ marks a conversion by molar mass, not a printed value.

Legend:
Type in all cases: functional
Candida albicans [1] = test: Antifungal activity against Candida albicans 5 assessed as inhibition in fungal growth incubated for 48 hrs by microplate reader analysis
Candida parapsilosis [2] = test: Antifungal activity against Candida parapsilosis 15 assessed as inhibition in fungal growth incubated for 48 hrs by microplate reader analysis; settings: Lodderomyces parapsilosis
Candida tropicalis [3] = test: Antifungal activity against Candida tropicalis ATCC750 (Y-12699) assessed as reduction in fungal viability incubated for 48 hrs by microplate reader analysis
Candida tropicalis [4] = test: Antifungal activity against Candida tropicalis 13 assessed as inhibition in fungal growth incubated for 48 hrs by microplate reader analysis
Pichia kudriavzevii = test: Antifungal activity against multidrug-resistant Candida krusei 397 assessed as inhibition in fungal growth incubated for 48 hrs by microplate reader analysis
Candida albicans [5] = test: Antifungal activity against Candida albicans SC5314 assessed as inhibition in fungal growth incubated for 48 hrs in presence of 10% serum by microplate reader analysis
Cryptococcus neoformans [6] = test: Antifungal activity against Cryptococcus neoformans H99 assessed as reduction in fungal viability incubated for 48 hrs by microplate reader analysis
Aspergillus terreus [7] = test: Antifungal activity against Aspergillus terreus 191A6 assessed as reduction in fungal growth incubated for 48 hrs by microplate reader analysis
Candida tropicalis [8] = test: Antifungal activity against Candida tropicalis ATCC750 (Y-12699) assessed as reduction in fungal growth incubated for 48 hrs by microplate reader analysis
[Candida] auris [9] = Antifungal activity against multidrug-resistant Candida auris 382 assessed as inhibition in fungal growth incubated for 48 hrs by microplate reader analysis; settings: Candidozyma auris
Aspergillus terreus [10] = test: Antifungal activity against Aspergillus terreus 191A6 assessed as reduction in fungal viability incubated for 48 hrs by microplate reader analysis
Nakaseomyces glabratus [11] = test: Antifungal activity against Candida glabrata 17 assessed as inhibition in fungal growth incubated for 48 hrs by microplate reader analysis
Candida albicans [12] = test: Antifungal activity against Candida albicans 8 assessed as inhibition in fungal growth incubated for 48 hrs by microplate reader analysis
[Candida] auris [13] = Antifungal activity against multidrug-resistant Candida auris 390 assessed as inhibition in fungal growth incubated for 48 hrs by microplate reader analysis; settings: Candidozyma auris
[Candida] auris [14] = Antifungal activity against multidrug-resistant Candida auris 381 assessed as inhibition in fungal growth incubated for 48 hrs in presence of 5% serum by microplate reader analysis; settings: Candidozyma auris
[Candida] auris [15] = Antifungal activity against multidrug-resistant Candida auris 381 assessed as inhibition in fungal growth incubated for 48 hrs in presence of 10% serum by microplate reader analysis; settings: Candidozyma auris
Candida albicans [16] = test: Antifungal activity against Candida albicans ATCC 10231 assessed as reduction in fungal growth incubated for 48 hrs by microplate reader analysis
Mucor circinelloides = test: Antifungal activity against Mucor circinelloides 235C7 assessed as reduction in fungal growth incubated for 48 hrs by microplate reader analysis
Candida parapsilosis [17] = test: Antifungal activity against Candida parapsilosis ATCC 22019 (Y-12969) assessed as reduction in fungal growth incubated for 48 hrs by microplate reader analysis; settings: Lodderomyces parapsilosis
Candida albicans [18] = test: Antifungal activity against Candida albicans 14 assessed as inhibition in fungal growth incubated for 48 hrs by microplate reader analysis
Candida albicans [19] = test: Antifungal activity against Candida albicans SC5314 assessed as inhibition in fungal growth incubated for 48 hrs in presence of 0% serum by microplate reader analysis
Aspergillus fumigatus [20] = test: Antifungal activity against Aspergillus fumigatus MYA 3627 assessed as reduction in fungal growth incubated for 48 hrs by microplate reader analysis
Aspergillus fumigatus [21] = test: Antifungal activity against Aspergillus fumigatus ATCC MYA-3627 assessed as inhibition in fungal growth incubated for 48 hrs in presence of 10% serum by microplate reader analysis
[Candida] haemuloni = Antifungal activity against multidrug-resistant Candida haemulonii 393 assessed as inhibition in fungal growth incubated for 48 hrs by microplate reader analysis; settings: Candidozyma haemuli
[Candida] auris [22] = Antifungal activity against multidrug-resistant Candida auris 383 assessed as inhibition in fungal growth incubated for 48 hrs by microplate reader analysis; settings: Candidozyma auris
Candida albicans [23] = test: Antifungal activity against Candida albicans 24 assessed as inhibition in fungal growth incubated for 48 hrs by microplate reader analysis
Nakaseomyces glabratus [24] = test: Antifungal activity against Candida glabrata 22 assessed as inhibition in fungal growth incubated for 48 hrs by microplate reader analysis
Candida albicans [25] = test: Antifungal activity against Candida albicans 21 assessed as inhibition in fungal growth incubated for 48 hrs by microplate reader analysis
[Candida] auris [26] = Antifungal activity against multidrug-resistant Candida auris 385 assessed as inhibition in fungal growth incubated for 48 hrs by microplate reader analysis; settings: Candidozyma auris
[Candida] auris [27] = Antifungal activity against multidrug-resistant Candida auris 381 assessed as inhibition in fungal growth incubated for 48 hrs by microplate reader analysis; settings: Candidozyma auris
Cryptococcus neoformans [28] = test: Antifungal activity against Cryptococcus neoformans H99 assessed as reduction in fungal growth incubated for 48 hrs by microplate reader analysis
Aspergillus flavus = test: Antifungal activity against Aspergillus flavus NRRL485 assessed as reduction in fungal growth incubated for 48 hrs by microplate reader analysis
[Candida] auris [29] = Antifungal activity against multidrug-resistant Candida auris 389 assessed as inhibition in fungal growth incubated for 48 hrs by microplate reader analysis; settings: Candidozyma auris
Curvularia lunata [30] = test: Antifungal activity against Curvularia lunata NRRL6409 assessed as reduction in fungal viability incubated for 48 hrs by microplate reader analysis
Cryptococcus neoformans [31] = test: Antifungal activity against Cryptococcus neoformans H99 assessed as inhibition in fungal growth incubated for 48 hrs in presence of 5% serum by microplate reader analysis
Fusarium solani = test: Antifungal activity against Fusarium solani 243G2 assessed as reduction in fungal growth incubated for 48 hrs by microplate reader analysis
Aspergillus fumigatus [32] = test: Antifungal activity against Aspergillus fumigatus MYA 3627 assessed as reduction in fungal viability incubated for 48 hrs by microplate reader analysis
Candida parapsilosis [33] = test: Antifungal activity against Candida parapsilosis 28 assessed as inhibition in fungal growth incubated for 48 hrs by microplate reader analysis; settings: Lodderomyces parapsilosis
Nakaseomyces glabratus [34] = test: Antifungal activity against Candida glabrata 4 assessed as inhibition in fungal growth incubated for 48 hrs by microplate reader analysis
Nakaseomyces glabratus [35] = test: Antifungal activity against Candida glabrata 2 assessed as inhibition in fungal growth incubated for 48 hrs by microplate reader analysis
Candida albicans [36] = test: Antifungal activity against Candida albicans 1 assessed as inhibition in fungal growth incubated for 48 hrs by microplate reader analysis
Candida parapsilosis [37] = test: Antifungal activity against Candida parapsilosis 18 assessed as inhibition in fungal growth incubated for 48 hrs by microplate reader analysis; settings: Lodderomyces parapsilosis
Paecilomyces lilacinus = test: Antifungal activity against Paecilomyces lilacinus 165E10 assessed as reduction in fungal growth incubated for 48 hrs by microplate reader analysis; settings: Purpureocillium lilacinum
Curvularia lunata [38] = test: Antifungal activity against Curvularia lunata NRRL6409 assessed as reduction in fungal growth incubated for 48 hrs by microplate reader analysis

Compound: C[C@@H]1[C@H](O)[C@@H](C)/C=C/C=C/C=C/C=C/C=C/C=C/C=C/[C@H](O[C@@H]2O[C@H](C)[C@@H](O)[C@H](N)[C@@H]2O)C[C@@H]2O[C@](O)(C[C@@H](O)C[C@@H](O)[C@H](O)CC[C@@H](O)C[C@@H](O)CC(=O)O[C@H]1C)C[C@H](O)[C@H]2C(=O)O [AMPHOTERICIN B]
- MIC80 (Candida albicans [1]): 0.6 µM (≈ 0.554 µg/mL)
- MIC80 (Candida parapsilosis [2]): 2.5 µM (≈ 2.31 µg/mL)
- MFC<=99.9 (Candida tropicalis [3]): 2.5 µM (≈ 2.31 µg/mL)
- MIC80 (Candida tropicalis [4]): 0.2 µM (≈ 0.185 µg/mL)
- MIC80 (Pichia kudriavzevii): 2.5 µM (≈ 2.31 µg/mL)
- MIC80 (Candida albicans [5]): < 0.2 µM
- MFC<=99.9 (Cryptococcus neoformans [6]): 2.5 µM (≈ 2.31 µg/mL)
- MFC (Aspergillus terreus [7]): 10 µM (≈ 9.24 µg/mL)
- MIC80 (Aspergillus terreus [7]): 2.5 µM (≈ 2.31 µg/mL)
- MFC (Candida tropicalis [8]): 2.5 µM (≈ 2.31 µg/mL)
- MIC80 (Candida tropicalis [8]): 1.3 µM (≈ 1.2 µg/mL)
- MIC80 ([Candida] auris [9]): 1.3 µM (≈ 1.2 µg/mL)
- MFC<=99.9 (Aspergillus terreus [10]): 10 µM (≈ 9.24 µg/mL)
- MIC80 (Nakaseomyces glabratus [11]): 0.3 µM (≈ 0.277 µg/mL)
- MIC80 (Candida albicans [12]): 0.6 µM (≈ 0.554 µg/mL)
- MIC80 ([Candida] auris [13]): 2.5 µM (≈ 2.31 µg/mL)
- MIC80 ([Candida] auris [14]): < 0.2 µM
- MIC80 ([Candida] auris [15]): 0.3 µM
- MFC (Candida albicans [16]): 2.5 µM (≈ 2.31 µg/mL)
- MIC80 (Candida albicans [16]): 0.6 µM (≈ 0.554 µg/mL)
- MFC (Mucor circinelloides): 1.3 µM (≈ 1.2 µg/mL)
- MIC80 (Mucor circinelloides): 1.3 µM (≈ 1.2 µg/mL)
- MFC (Candida parapsilosis [17]): 5 µM (≈ 4.62 µg/mL)
- MIC80 (Candida parapsilosis [17]): 1.3 µM (≈ 1.2 µg/mL)
- MIC80 (Candida albicans [18]): 1.3 µM (≈ 1.2 µg/mL)
- MIC80 (Candida albicans [19]): 0.6 µM
- MFC (Aspergillus fumigatus [20]): 2.5 µM (≈ 2.31 µg/mL)
- MIC80 (Aspergillus fumigatus [20]): 2.5 µM (≈ 2.31 µg/mL)
- MIC80 (Aspergillus fumigatus [21]): 0.2 µM
- MIC80 ([Candida] haemuloni): 5 µM (≈ 4.62 µg/mL)
- MIC80 ([Candida] auris [22]): 2.5 µM (≈ 2.31 µg/mL)
- MIC80 (Candida albicans [23]): 1.3 µM (≈ 1.2 µg/mL)
- MIC80 (Nakaseomyces glabratus [24]): 0.3 µM (≈ 0.277 µg/mL)
- MIC80 (Candida albicans [25]): 0.6 µM (≈ 0.554 µg/mL)
- MIC80 ([Candida] auris [26]): 2.5 µM (≈ 2.31 µg/mL)
- MIC80 ([Candida] auris [27]): 1.3 µM (≈ 1.2 µg/mL)
- MFC (Cryptococcus neoformans [28]): 2.5 µM (≈ 2.31 µg/mL)
- MIC80 (Cryptococcus neoformans [28]): 1.3 µM (≈ 1.2 µg/mL)
- MFC (Aspergillus flavus): 10 µM (≈ 9.24 µg/mL)
- MIC80 (Aspergillus flavus): 5 µM (≈ 4.62 µg/mL)
- MIC80 ([Candida] auris [29]): 5 µM (≈ 4.62 µg/mL)
- MFC<=99.9 (Curvularia lunata [30]): 2.5 µM (≈ 2.31 µg/mL)
- MIC80 (Cryptococcus neoformans [31]): < 0.2 µM
- MFC (Fusarium solani): 1.3 µM (≈ 1.2 µg/mL)
- MIC80 (Fusarium solani): 1.3 µM (≈ 1.2 µg/mL)
- MFC<=99.9 (Aspergillus fumigatus [32]): 2.5 µM (≈ 2.31 µg/mL)
- MIC80 (Candida parapsilosis [33]): 1.3 µM (≈ 1.2 µg/mL)
- MIC80 (Nakaseomyces glabratus [34]): 1.3 µM (≈ 1.2 µg/mL)
- MIC80 (Nakaseomyces glabratus [35]): 0.3 µM (≈ 0.277 µg/mL)
- MIC80 (Candida albicans [36]): 0.6 µM (≈ 0.554 µg/mL)
- MIC80 (Candida parapsilosis [37]): 1.3 µM (≈ 1.2 µg/mL)
- MFC (Paecilomyces lilacinus): > 10 µM
- MIC80 (Paecilomyces lilacinus): > 10 µM
- MFC (Curvularia lunata [38]): 2.5 µM (≈ 2.31 µg/mL)
- MIC80 (Curvularia lunata [38]): 0.3 µM (≈ 0.277 µg/mL)
